According to paper PMC11098088, “A distinct, high-affinity, alkaline phosphatase facilitates occupation of P-depleted environments by marine picocyanobacteria” (Proceedings of the National Academy of Sciences of the …, 2024):

T1: Psip1 (Prochlorococcus marinus, UniProt Q7V066)
T1 construct: gene PMM1416; predicted signal peptide removed; codon-optimized; pET-23a(+), C-terminal His-tag; E. coli BL21(DE3); reconstituted with Fe and Ca
T1 sequence (Q7V066 24-694): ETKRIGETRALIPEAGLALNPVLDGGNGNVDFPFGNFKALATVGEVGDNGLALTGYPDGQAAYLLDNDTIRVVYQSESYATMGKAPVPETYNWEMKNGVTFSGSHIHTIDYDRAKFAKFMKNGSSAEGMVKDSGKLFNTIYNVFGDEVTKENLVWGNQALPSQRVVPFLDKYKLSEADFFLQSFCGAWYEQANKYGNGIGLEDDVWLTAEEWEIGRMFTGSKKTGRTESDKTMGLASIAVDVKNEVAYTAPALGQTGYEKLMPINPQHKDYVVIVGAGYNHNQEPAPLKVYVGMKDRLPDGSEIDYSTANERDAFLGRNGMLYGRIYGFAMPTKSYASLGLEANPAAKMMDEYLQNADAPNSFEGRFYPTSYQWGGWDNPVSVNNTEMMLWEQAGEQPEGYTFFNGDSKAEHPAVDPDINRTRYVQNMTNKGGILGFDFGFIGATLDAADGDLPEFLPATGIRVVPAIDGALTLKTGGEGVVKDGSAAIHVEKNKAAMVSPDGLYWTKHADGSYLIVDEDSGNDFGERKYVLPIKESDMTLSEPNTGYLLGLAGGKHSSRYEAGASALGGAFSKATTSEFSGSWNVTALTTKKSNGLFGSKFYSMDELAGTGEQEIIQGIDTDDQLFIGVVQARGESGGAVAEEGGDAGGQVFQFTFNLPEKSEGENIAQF

B1: Psip1 (Prochlorococcus marinus subsp. pastoris str. CCMP1986) (protein)
chain: ETKRIGETRALIPEAGLALNPVLDGGNGNVDFPFGNFKALATVGEVGDNGLALTGYPDGQAAYLLDNDTIRVVYQSESYATMGKAPVPETYNWEMKNGVTFSGSHIHTIDYDRAKFAKFMKNGSSAEGMVKDSGKLFNTIYNVFGDEVTKENLVWGNQALPSQRVVPFLDKYKLSEADFFLQSFCGAWYEQANKYGNGIGLEDDVWLTAEEWEIGRMFTGSKKTGRTESDKTMGLASIAVDVKNEVAYTAPALGQTGYEKLMPINPQHKDYVVIVGAGYNHNQEPAPLKVYVGMKDRLPDGSEIDYSTANERDAFLGRNGMLYGRIYGFAMPTKSYASLGLEANPAAKMMDEYLQNADAPNSFEGRFYPTSYQWGGWDNPVSVNNTEMMLWEQAGEQPEGYTFFNGDSKAEHPAVDPDINRTRYVQNMTNKGGILGFDFGFIGATLDAADGDLPEFLPATGIRVVPAIDGALTLKTGGEGVVKDGSAAIHVEKNKAAMVSPDGLYWTKHADGSYLIVDEDSGNDFGERKYVLPIKESDMTLSEPNTGYLLGLAGGKHSSRYEAGASALGGAFSKATTSEFSGSWNVTALTTKKSNGLFGSKFYSMDELAGTGEQEIIQGIDTDDQLFIGVVQARGESGGAVAEEGGDAGGQVFQFTFNLPEKSEGENIAQF
notes: predicted signal peptide removed; codon-optimized; pET-23a(+), C-terminal His-tag; E. coli BL21(DE3); reconstituted with Fe and Ca

Key:
Psip1 = target: T1, Psip1; experiment: inhibition of MUF release from MUF-P; assay type: biochemical; conditions: competing with MUF-P; estimated Ki; Fe(III) and Ca2+; Pi release by phosphomolybdate assay
Source text: inhibition of MUF release from […] on Psip1 | natural organic P compounds: glycerol-1-phosphate (G1P) | glycerol-3-phosphate (G3P) | phosphocholine (PC) | phosphorylethanolamine (PE) | adenosine monophosphate (AMP) | glucosamine-6-phosphate (Ga6P) by measuring the inhibition of MUF release from […]

purified protein [1] = substrate: O=[N+]([O-])c1ccc(OP(=O)(O)O)cc1; experiment: purified protein; assay type: biochemical, Prochlorococcus marinus; conditions: pH 9.8, Fe(III) and Ca2+, 30 °C
purified protein [2] = substrate: Cc1cc(=O)oc2cc(OP(=O)(O)Oc3ccc4c(C)cc(=O)oc4c3)ccc12; experiment: purified protein; conditions: pH 8.8, Fe(III) and Ca2+, 30 °C, phosphodiesterase activity

Molecule | Ki (Psip1) | Km (purified protein [1]) | Km (purified protein [2])
NCCOP(=O)(O)O [phosphorylethanolamine] | 4460 ± 1080 nM | – | –
C[N+](C)(C)CCOP(=O)([O-])O [phosphocholine] | 2200 ± 370 nM | – | –
O=P(O)(O)OCC(O)CO (centres unmarked) [glycerol-1-phosphate] | 1200 ± 200 nM | – | –
Nc1ncnc2c1ncn2[C@@H]1O[C@H](COP(=O)(O)O)[C@@H](O)[C@H]1O [adenosine monophosphate] | 1520 ± 220 nM | – | –
N[C@H]1C(O)O[C@H](COP(=O)(O)O)[C@@H](O)[C@@H]1O (some centres unmarked) [glucosamine-6-phosphate] | 600 ± 110 nM | – | –
O=P(O)(O)OC[C@H](O)CO [glycerol-3-phosphate] | 790 ± 150 nM | – | –
B1 | – | 2.5 ± 1.18 µM | 46.1 ± 5.72 µM
